From US10342794B2, “Substituted imidazo[1,2-a]pyrazines as Syk inhibitors” (Gilead Sciences, Inc., priority 2013, dated 2019)

How the values were obtained:
human hepatocytes = assay: Human Hepatocyte Stability Assay (predicted hepatocyte clearance); type: in vitro ADME
Method: The human […] stability of the compounds as predicted hepatocyte clearance in L/hr/kg was assessed. Compounds to be tested were diluted to 200 μM (4 μl of 10 mM DMSO stock into 196 μl ACN:H2O (50:50). Propranolol was used as a positive control, and buffer only without hepatocytes as 0% control. These were further diluted 4 μl with 891 μl KHB buffer (InVitroGRO catalog number Z99074) to provide 2× dosing solution. To each well of 24 well plate, 250 μl of the 2× dosing solution was added to each well with 250 μl of hepatocytes cells (1×10^6 viable cells/ml per well) or KHB for control samples to achieve a final compound concentration of 1 μM during incubation. The final solvent concentration was 0.01% DMSO and 0.25% ACN. The culture plate was placed on a rocker and incubated at 37° C., 5% CO2. Samples were collected at time 0, 1, 3, and 6 hours. The loss of parent compound was determined using LC-MS methods against a standard curve.

[1] = test system: basophils in human whole blood (CD63 expression); assay: 384-Well HTBS Whole Blood CD63 Basophil Assay (25% blood); type: cell-based; settings: for IC50: comparison table with known compounds, human whole blood basophils, head prints IC50; for EC50: human whole blood (25% blood), anti-FceRI mAb activation, CD63 on CCR3 positive cells
Method: Syk activity was assessed in relation to reduced activation of basophils as measured by the expression of CD63 in a human whole blood basophil cellular assay (25% blood). Basophil activation was measured in human whole blood using the Flow CAST kit (Buhlmann Laboratories AG, Baselstrasse, Switzerland) following the protocol provided by the manufacturer with minor modifications. Fresh human whole blood in heparin was collected and delivered same day (AllCells, Emeryville, Calif.). Whole blood samples were incubated with either DMSO (1% final) or serial diluted compounds in DMSO for 60 minutes at 37° C. Basophils were activated using the anti-FceRI mAb and stained with anti-CD63-FITC and anti-CCR3-PE for 20 minutes at 37° C. (per well: 50 μL of whole blood was mixed with 113 μL of stimulation buffer, 8.5 μL anti-FceRI mAb, 8.5 μL Ab stain CCR3-PE/CD63-FITC). Cells were centrifuged at 1000×g for 18 minutes and 150 μL/well of supernatant removed. Red blood cells were lysed and cells fixed by 2 rounds of cell lysing: resuspending cell pellets with 150 μL/well 1× lysis buffer, incubating at room temperature for 10 minutes, and collecting cell pellets by centrifuging for 1200 rpms for 5 minutes. Cells were washed with 150 µL/well wash buffer twice, and resuspended in a final volume of 75 µL/well of wash buffer for either immediate flow cytometery analysis or overnight incubation at 4° C. followed by flow cytometry analysis. Degranulation (basophil activation) was detected by CD63 surface expression on CCR3 positive cells. The percent CD63 positive cells within the gated basophil population were determined and normalized to the DMSO (negative control) and control compound (positive control).

[2] = comparison table with known compounds, predicted hepatocyte clearance (L/hr/kg)
[3] = predicted hepatocyte clearance, human hepatocytes, 1 μM compound, 0-6 hours

SMILES | Hheps CL (human hepatocytes; [2]) | IC50 [1] | Hheps CL (human hepatocytes; [3]) | EC50 [1]
COc1ccc(Nc2nc(-c3cccc(N)c3)cn3ccnc23)cc1OC [6-(3-aminophenyl)-N-(3,4-dimethoxyphenyl)imidazo[1,2-a]pyrazin-8-amine, reference compound] | 4 mL/min/kg | 809 nM | – | –
Cc1ncc(-c2cn3ccnc3c(Nc3ccc(N4CCOCC4)cc3)n2)cc1N [6-(5-amino-6-methylpyridin-3-yl)-N-(4-morpholinophenyl)imidazo[1,2-a]pyrazin-8-amine, reference compound] | 13.3 mL/min/kg | 250 nM | – | –
Nc1cncc(-c2cn3ccnc3c(Nc3ccc(N4CCO[C@@H](CO)C4)cc3)n2)n1 [Ex.-3, (R)-(4-(4-((6-(6-aminopyrazin-2-yl)imidazo[1,2-a]pyrazin-8-yl)amino)phenyl)morpholin-2-yl)methanol] | 1.5 mL/min/kg | 63 nM | 1.5 mL/min/kg | 63 nM
Cc1c(-c2cncc(N)n2)nc(Nc2ccc(N3CCN(C4COC4)CC3)cc2)c2nccn12 [Ex.-4, 6-(6-aminopyrazin-2-yl)-5-methyl-N-(4-(4-(oxetan-3-yl)piperazin-1-yl)phenyl)imidazo[1,2-a]pyrazin-8-amine] | 1.3 mL/min/kg | 157 nM | 1.3 mL/min/kg | 157 nM
Nc1cncc(-c2cn3ccnc3c(Nc3ccc(N4CCN(C5COC5)CC4)c(OCCO)c3)n2)n1 [Ex.-5, 2-(5-((6-(6-aminopyrazin-2-yl)imidazo[1,2-a]pyrazin-8-yl)amino)-2-(4-(oxetan-3-yl)piperazin-1-yl)phenoxy)ethanol] | 1.2 mL/min/kg | 120 nM | 1.2 mL/min/kg | 120 nM
Nc1cncc(-c2cn3ccnc3c(Nc3ccc(N4CCN(CC(CO)CO)CC4)cc3)n2)n1 [Ex.-6, 2-((4-(4-((6-(6-aminopyrazin-2-yl)imidazo[1,2-a]pyrazin-8-yl)amino)phenyl)piperazin-1-yl)methyl)propane-1,3-diol] | 1.3 mL/min/kg | 128 nM | 1.3 mL/min/kg | 128 nM
